Tested on: aRPE-19 human retinal pigmented epithelial cell line
Experiment: Activation and deactivation of vector constructs containing luciferase (Nano-Glo luminescence assay)
Format: cell-based
Conditions: luminescence on day 7
Procedure: ARPE-19 cells were seeded as described above. 12-24 hours later, cells were transfected with pAAV-LTetL-luc and pAAV-LCuL-luc. Media was replaced the next day and doxycycline or cumate was added to a subset of cells (FIG. 7). The media from the cells were assayed for the expression of marker gene, luciferase, using the Nano-Glo Luciferase assay on day 4 after having a media change on day 3. The Nano-Glow luciferase assay was performed as described above.
Following the luciferase assay, media was changed in all the wells. A subset of cells activated with doxycycline and cumate were washed to deactivate the vector.
A human retinal pigmented epithelial cell line (aRPE-19) was transfected with vector constructs containing Tet or Cu regulatory sequences driving the expression of the marker gene luciferase. Twenty-four hours later, the cells were treated with or without Tet or Cu and incubated for a further 48 hours before assessing the expression of luciferase. The ability of the system to stop expression of the transgene (Luciferase) was examined by removing the Tet or Cu from the cells by washing prior to re-examining Luciferase expression. Cells without Tet or Cu were used as a control as were cells where Tet or Cu was not removed.

`CC(C)c1ccc(C(=O)O)cc1` [Cu, cumate] was tested, and the “luciferase expression on addition of regulator compound” value (aRPE-19 cells transfected with Tet or Cu regulated luciferase vector) was “able to induce significant levels of luciferase expression” and the “luciferase expression after removal of regulator compound by washing” value (aRPE-19 cells, 3 days of washes) was “significantly less luciferase being detected”.

— patent publication US12305185B2, “Expression vector and method” (MOUNT SPEC I[…] LTD, priority 2018, dated 2025)
